Experimental data from ChEMBL document CHEMBL4507303, “Data for DCP probe TP-004” (2021).

How the values were obtained:
[1] = target: Histamine H3 receptor (Homo sapiens) (UniProt Q9Y5N1); conditions: Compound concentration 10.0 uM
[2] = target: GABA-A receptor; anion channel (Rattus norvegicus) (UniProt O09028+P15431+P18506+P18508+P19969+P20236+P23574+P23576+P28471+P28473+P30191+P62813+P63079+P63138+Q91ZM7+Q9ES14); conditions: Compound concentration 10.0 uM
[3] = target: Serine/threonine-protein kinase VRK2 (Homo sapiens) (UniProt Q86Y07); conditions: Compound concentration 1000.0 nM
[4] = target: Serine/threonine-protein kinase D1 (Homo sapiens) (UniProt Q15139); conditions: Compound concentration 1000.0 nM
[5] = target: Dual specificity mitogen-activated protein kinase kinase 3 (Homo sapiens) (UniProt P46734); conditions: Compound concentration 1000.0 nM
[6] = target: Muscarinic acetylcholine receptor M1 (Homo sapiens) (UniProt P11229); conditions: Compound concentration 10.0 uM
[7] = target: Histamine H2 receptor (Homo sapiens) (UniProt P25021); conditions: Compound concentration 10.0 uM
[8] = target: Dual specificity protein kinase CLK3 (Homo sapiens) (UniProt P49761); conditions: Compound concentration 1000.0 nM
[9] = target: Serine/threonine-protein kinase BRSK2 (Homo sapiens) (UniProt Q8IWQ3); conditions: Compound concentration 1000.0 nM
[10] = target: Proto-oncogene tyrosine-protein kinase receptor Ret (Homo sapiens) (UniProt P07949); conditions: Compound concentration 1000.0 nM
[11] = target: Inhibitor of nuclear factor kappa-B kinase subunit alpha (Homo sapiens) (UniProt O15111); conditions: Compound concentration 1000.0 nM
[12] = target: cGMP-dependent protein kinase 1 (Homo sapiens) (UniProt Q13976); conditions: Compound concentration 1000.0 nM
[13] = target: Receptor-type tyrosine-protein kinase FLT3 (Homo sapiens) (UniProt P36888); conditions: Compound concentration 1000.0 nM
[14] = target: Tyrosine-protein kinase Fes/Fps (Homo sapiens) (UniProt P07332); conditions: Compound concentration 1000.0 nM
[15] = target: Serine/threonine-protein kinase 36 (Homo sapiens) (UniProt Q9NRP7); conditions: Compound concentration 1000.0 nM
[16] = target: Tyrosine-protein kinase FRK (Homo sapiens) (UniProt P42685); conditions: Compound concentration 1000.0 nM
[17] = test system: Hepatocyte growth factor receptor (Homo sapiens), P08581 [Y1235D]; conditions: Compound concentration 1000.0 nM
[18] = target: Activated CDC42 kinase 1 (Homo sapiens) (UniProt Q07912); conditions: Compound concentration 1000.0 nM
[19] = target: D(2) dopamine receptor (Homo sapiens) (UniProt P14416); conditions: Compound concentration 10.0 uM
[20] = target: Leucine-rich repeat serine/threonine-protein kinase 2 (Homo sapiens) (UniProt Q5S007); conditions: Compound concentration 1000.0 nM
[21] = target: Serine/threonine-protein kinase 38 (Homo sapiens) (UniProt Q15208); conditions: Compound concentration 1000.0 nM
[22] = target: Mast/stem cell growth factor receptor Kit (Homo sapiens) (UniProt P10721); conditions: Compound concentration 1000.0 nM
[23] = target: Mitogen-activated protein kinase kinase kinase 13 (Homo sapiens) (UniProt O43283); conditions: Compound concentration 1000.0 nM
[24] = target: Tyrosine-protein kinase HCK (Homo sapiens) (UniProt P08631); conditions: Compound concentration 1000.0 nM
[25] = target: Serine/threonine-protein kinase Nek9 (Homo sapiens) (UniProt Q8TD19); conditions: Compound concentration 1000.0 nM
[26] = target: Serine/threonine-protein kinase Nek1 (Homo sapiens) (UniProt Q96PY6); conditions: Compound concentration 1000.0 nM
[27] = target: Serine/threonine-protein kinase PAK 1 (Homo sapiens) (UniProt Q13153); conditions: Compound concentration 1000.0 nM
[28] = target: Serine/threonine-protein kinase Sgk2 (Homo sapiens) (UniProt Q9HBY8); conditions: Compound concentration 1000.0 nM
[29] = target: Phosphatidylinositol 3-kinase catalytic subunit type 3 (Homo sapiens) (UniProt Q8NEB9); conditions: Compound concentration 1000.0 nM
[30] = target: Ephrin type-B receptor 1 (Homo sapiens) (UniProt P54762); conditions: Compound concentration 1000.0 nM
[31] = target: Serine/threonine-protein kinase PknB (Mycobacterium tuberculosis) (UniProt P9WI81); conditions: Compound concentration 1000.0 nM
[32] = test system: Epidermal growth factor receptor (Homo sapiens), P00533 [L858R]; conditions: Compound concentration 1000.0 nM
[33] = target: Mitogen-activated protein kinase kinase kinase 9 (Homo sapiens) (UniProt P80192); conditions: Compound concentration 1000.0 nM
[34] = target: Inhibitor of nuclear factor kappa-B kinase subunit beta (Homo sapiens) (UniProt O14920); conditions: Compound concentration 1000.0 nM
[35] = target: Serine/threonine-protein kinase LATS1 (Homo sapiens) (UniProt O95835); conditions: Compound concentration 1000.0 nM
[36] = test system: Proto-oncogene tyrosine-protein kinase receptor Ret (Homo sapiens), P07949 [M918T]; conditions: Compound concentration 1000.0 nM
[37] = test system: ALK tyrosine kinase receptor (Homo sapiens), Q9UM73 [C1156Y]; conditions: Compound concentration 1000.0 nM
[38] = target: Mitogen-activated protein kinase 3 (Homo sapiens) (UniProt P27361); conditions: Compound concentration 1000.0 nM
[39] = target: Insulin receptor (Homo sapiens) (UniProt P06213); conditions: Compound concentration 1000.0 nM
[40] = target: Receptor-interacting serine/threonine-protein kinase 1 (Homo sapiens) (UniProt Q13546); conditions: Compound concentration 1000.0 nM
[41] = test system: Tyrosine-protein kinase ABL1 (Homo sapiens), P00519 [F317I]; conditions: Compound concentration 1000.0 nM
[42] = target: Serine/threonine-protein kinase pim-1 (Homo sapiens) (UniProt P11309); conditions: Compound concentration 1000.0 nM
[43] = target: Phosphorylase b kinase regulatory subunit alpha, liver isoform (Homo sapiens) (UniProt P46019); conditions: Compound concentration 1000.0 nM
[44] = target: Interleukin-1 receptor-associated kinase 3 (Homo sapiens) (UniProt Q9Y616); conditions: Compound concentration 1000.0 nM

Chain of Serine/threonine-protein kinase PAK 1 (Homo sapiens) (Q13153 whole entry): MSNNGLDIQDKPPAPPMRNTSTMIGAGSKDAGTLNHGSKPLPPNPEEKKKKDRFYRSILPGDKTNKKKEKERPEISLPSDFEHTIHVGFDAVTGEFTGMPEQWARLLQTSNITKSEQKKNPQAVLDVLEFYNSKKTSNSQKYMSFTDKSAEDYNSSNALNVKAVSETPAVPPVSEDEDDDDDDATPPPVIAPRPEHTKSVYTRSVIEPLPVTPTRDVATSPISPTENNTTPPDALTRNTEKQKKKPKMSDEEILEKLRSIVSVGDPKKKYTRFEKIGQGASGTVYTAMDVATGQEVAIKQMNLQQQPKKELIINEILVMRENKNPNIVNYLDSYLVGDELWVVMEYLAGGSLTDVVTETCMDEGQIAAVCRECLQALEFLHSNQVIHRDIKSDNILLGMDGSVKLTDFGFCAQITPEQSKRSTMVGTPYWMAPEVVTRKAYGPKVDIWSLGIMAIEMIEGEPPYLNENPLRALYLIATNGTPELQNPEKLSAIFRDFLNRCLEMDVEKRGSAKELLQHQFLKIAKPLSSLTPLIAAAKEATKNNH
Chain of Tyrosine-protein kinase Fes/Fps (Homo sapiens) (P07332 whole entry): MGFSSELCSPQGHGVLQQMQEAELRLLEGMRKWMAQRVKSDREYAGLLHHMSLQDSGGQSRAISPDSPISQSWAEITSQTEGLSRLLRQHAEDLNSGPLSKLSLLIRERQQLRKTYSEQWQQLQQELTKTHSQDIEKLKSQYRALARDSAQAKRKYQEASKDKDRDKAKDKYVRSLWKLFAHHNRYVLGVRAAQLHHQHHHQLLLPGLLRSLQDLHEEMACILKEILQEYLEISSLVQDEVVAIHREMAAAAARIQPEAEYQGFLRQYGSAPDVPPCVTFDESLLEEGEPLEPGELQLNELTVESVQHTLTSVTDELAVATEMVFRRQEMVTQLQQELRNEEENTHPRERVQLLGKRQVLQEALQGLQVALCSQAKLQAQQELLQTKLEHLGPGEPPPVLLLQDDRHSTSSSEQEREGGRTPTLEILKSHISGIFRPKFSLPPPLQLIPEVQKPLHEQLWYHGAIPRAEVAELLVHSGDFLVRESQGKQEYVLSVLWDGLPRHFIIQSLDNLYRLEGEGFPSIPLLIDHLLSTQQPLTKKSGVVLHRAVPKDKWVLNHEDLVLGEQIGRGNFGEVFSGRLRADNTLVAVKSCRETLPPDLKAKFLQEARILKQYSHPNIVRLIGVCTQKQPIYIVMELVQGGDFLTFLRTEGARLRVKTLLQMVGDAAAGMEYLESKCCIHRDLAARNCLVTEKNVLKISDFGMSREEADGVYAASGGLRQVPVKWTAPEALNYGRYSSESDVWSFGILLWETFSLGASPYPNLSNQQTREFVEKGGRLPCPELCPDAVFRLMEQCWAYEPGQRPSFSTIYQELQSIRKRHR
Chain of Dual specificity protein kinase CLK3 (Homo sapiens) (P49761 whole entry, looked up): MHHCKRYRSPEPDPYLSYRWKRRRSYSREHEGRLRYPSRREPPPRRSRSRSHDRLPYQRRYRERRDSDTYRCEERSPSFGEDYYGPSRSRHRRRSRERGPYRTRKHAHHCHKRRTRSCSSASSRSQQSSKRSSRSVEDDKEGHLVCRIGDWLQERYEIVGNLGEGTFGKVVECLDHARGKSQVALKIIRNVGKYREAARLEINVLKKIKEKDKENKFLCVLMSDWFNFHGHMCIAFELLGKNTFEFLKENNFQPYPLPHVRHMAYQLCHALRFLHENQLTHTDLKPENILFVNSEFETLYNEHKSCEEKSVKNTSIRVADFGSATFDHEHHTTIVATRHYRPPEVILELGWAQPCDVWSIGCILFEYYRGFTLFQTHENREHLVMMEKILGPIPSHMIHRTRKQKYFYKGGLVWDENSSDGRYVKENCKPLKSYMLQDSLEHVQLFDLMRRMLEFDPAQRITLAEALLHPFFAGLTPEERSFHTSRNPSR
Chain of Muscarinic acetylcholine receptor M1 (Homo sapiens) (P11229 whole entry): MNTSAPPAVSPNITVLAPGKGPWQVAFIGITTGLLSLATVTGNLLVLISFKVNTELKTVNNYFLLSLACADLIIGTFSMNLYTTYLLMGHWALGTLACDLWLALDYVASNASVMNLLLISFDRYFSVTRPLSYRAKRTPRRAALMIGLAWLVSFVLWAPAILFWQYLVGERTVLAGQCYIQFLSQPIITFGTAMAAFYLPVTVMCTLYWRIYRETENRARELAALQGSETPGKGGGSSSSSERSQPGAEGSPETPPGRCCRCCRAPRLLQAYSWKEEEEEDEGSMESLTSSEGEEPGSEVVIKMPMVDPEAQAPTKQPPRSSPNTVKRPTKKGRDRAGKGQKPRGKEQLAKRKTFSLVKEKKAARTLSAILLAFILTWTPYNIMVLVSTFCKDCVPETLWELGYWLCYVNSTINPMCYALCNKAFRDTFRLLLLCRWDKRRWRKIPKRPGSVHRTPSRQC
Chain of Serine/threonine-protein kinase Sgk2 (Homo sapiens) (Q9HBY8 whole entry): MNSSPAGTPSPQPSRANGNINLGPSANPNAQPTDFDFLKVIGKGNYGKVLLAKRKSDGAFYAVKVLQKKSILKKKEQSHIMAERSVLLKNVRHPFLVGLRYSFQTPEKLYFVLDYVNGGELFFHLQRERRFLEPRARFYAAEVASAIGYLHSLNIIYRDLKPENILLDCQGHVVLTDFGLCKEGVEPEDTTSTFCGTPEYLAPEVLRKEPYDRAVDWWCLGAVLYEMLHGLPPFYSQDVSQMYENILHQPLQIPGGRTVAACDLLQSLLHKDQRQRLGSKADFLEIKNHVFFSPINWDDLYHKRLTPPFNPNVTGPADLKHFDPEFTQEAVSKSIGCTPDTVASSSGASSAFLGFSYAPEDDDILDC
Chain of Serine/threonine-protein kinase VRK2 (Homo sapiens) (Q86Y07 whole entry): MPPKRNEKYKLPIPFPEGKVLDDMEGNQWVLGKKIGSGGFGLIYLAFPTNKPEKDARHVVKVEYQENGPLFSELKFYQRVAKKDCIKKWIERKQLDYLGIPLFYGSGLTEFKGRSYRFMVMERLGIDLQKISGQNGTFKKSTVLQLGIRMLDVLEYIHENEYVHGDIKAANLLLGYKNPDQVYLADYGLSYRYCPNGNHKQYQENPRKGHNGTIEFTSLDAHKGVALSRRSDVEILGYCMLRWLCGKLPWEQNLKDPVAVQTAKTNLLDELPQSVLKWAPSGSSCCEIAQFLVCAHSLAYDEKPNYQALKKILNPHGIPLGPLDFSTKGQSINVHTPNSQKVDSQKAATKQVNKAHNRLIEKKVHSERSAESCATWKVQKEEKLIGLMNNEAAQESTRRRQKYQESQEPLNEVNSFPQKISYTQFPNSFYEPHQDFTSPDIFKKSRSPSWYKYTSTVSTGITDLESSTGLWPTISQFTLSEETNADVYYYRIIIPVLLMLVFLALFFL
Chain of Phosphorylase b kinase regulatory subunit alpha, liver isoform (Homo sapiens) (P46019 whole entry, canonical isoform): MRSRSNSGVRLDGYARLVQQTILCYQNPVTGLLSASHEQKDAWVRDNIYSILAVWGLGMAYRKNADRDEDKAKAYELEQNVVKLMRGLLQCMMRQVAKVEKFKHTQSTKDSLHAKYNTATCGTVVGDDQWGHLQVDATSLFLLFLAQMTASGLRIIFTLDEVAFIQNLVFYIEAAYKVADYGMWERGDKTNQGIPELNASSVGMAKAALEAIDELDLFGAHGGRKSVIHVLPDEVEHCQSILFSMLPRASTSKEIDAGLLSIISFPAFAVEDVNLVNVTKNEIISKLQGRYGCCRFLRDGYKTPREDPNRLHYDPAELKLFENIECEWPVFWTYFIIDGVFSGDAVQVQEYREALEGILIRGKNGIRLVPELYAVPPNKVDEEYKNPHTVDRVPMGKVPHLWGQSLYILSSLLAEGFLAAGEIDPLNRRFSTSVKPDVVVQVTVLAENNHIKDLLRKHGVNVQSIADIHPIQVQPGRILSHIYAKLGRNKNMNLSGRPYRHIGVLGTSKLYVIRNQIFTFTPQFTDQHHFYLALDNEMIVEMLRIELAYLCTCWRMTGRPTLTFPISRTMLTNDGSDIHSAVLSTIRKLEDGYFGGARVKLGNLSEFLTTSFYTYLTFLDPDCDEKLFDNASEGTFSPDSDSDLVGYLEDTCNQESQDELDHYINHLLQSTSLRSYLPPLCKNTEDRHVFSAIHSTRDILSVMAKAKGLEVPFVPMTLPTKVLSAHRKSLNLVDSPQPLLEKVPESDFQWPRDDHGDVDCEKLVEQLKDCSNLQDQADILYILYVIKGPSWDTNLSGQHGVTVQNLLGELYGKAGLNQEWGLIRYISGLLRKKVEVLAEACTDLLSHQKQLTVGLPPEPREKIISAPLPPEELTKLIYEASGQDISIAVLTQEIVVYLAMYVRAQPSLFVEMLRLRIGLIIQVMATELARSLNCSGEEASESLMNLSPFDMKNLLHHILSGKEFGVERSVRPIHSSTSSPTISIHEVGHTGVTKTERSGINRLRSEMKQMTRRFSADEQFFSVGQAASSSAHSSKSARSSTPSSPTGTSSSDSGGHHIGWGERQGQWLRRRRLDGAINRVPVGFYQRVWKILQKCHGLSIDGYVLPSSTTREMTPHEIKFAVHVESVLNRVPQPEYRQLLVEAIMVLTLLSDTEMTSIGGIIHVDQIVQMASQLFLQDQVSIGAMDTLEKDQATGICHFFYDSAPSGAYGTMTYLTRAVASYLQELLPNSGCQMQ
Chain of Mitogen-activated protein kinase 3 (Homo sapiens) (P27361 whole entry): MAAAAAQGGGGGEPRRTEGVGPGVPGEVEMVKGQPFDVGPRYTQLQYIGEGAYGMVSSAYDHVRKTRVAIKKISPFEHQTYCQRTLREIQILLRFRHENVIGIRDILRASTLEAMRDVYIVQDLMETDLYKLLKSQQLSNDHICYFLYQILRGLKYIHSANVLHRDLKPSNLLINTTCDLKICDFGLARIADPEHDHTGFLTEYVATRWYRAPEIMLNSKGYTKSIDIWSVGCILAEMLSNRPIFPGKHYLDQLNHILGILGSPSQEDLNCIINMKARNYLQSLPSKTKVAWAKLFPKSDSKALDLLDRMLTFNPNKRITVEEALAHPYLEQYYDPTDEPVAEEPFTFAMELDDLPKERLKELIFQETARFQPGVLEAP

Structure (SMILES): Cc1nc(N2CC[C@@H](O)C2)ncc1-c1cc(C(F)(F)F)cc2[nH]ncc12 [TP-004]
- inhibition [1]: 28.6%
- inhibition [2]: 54.3%
- residual activity [3]: 86%
- residual activity [4]: 75%
- residual activity [5]: 90%
- inhibition [6]: 1.12%
- inhibition [7]: -8.45%
- residual activity [8]: 76%
- residual activity [9]: 90%
- residual activity [10]: 84%
- residual activity [11]: 76%
- residual activity [12]: 77%
- residual activity [13]: 67%
- residual activity [14]: 100%
- residual activity [15]: 100%
- residual activity [16]: 98%
- residual activity [17]: 81%
- residual activity [18]: 90%
- inhibition [19]: 12.6%
- residual activity [20]: 58%
- residual activity [21]: 95%
- residual activity [22]: 89%
- residual activity [23]: 56%
- residual activity [24]: 100%
- residual activity [25]: 96%
- residual activity [26]: 100%
- residual activity [27]: 100%
- residual activity [28]: 88%
- residual activity [29]: 63%
- residual activity [30]: 73%
- residual activity [31]: 89%
- residual activity [32]: 77%
- residual activity [33]: 100%
- residual activity [34]: 77%
- residual activity [35]: 81%
- residual activity [36]: 100%
- residual activity [37]: 100%
- residual activity [38]: 100%
- residual activity [39]: 100%
- residual activity [40]: 100%
- residual activity [41]: 73%
- residual activity [42]: 100%
- residual activity [43]: 100%
- residual activity [44]: 85%
